Reference: patent US12655142B2 (Merck Patent GmbH, priority 2019, dated 2026)

Tests used:
[1] = biological target: T1, c-Kit(V654A) (Homo sapiens, UniProt P10721, V654A); experiment: c-Kit(V654A) assay (33P-ATP filter binding kinase assay); assay type: biochemical; settings: recombinant human c-Kit aa 544-end V654A, ATP 200 μM
T1 construct: recombinant human c-Kit, amino acids 544-end containing the V654A mutation; GST (N)
In short: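 Radiometric filter-binding read-out: substrate 33P incorporation counted by scintillation after P30 filtermat washes in 75 mM phosphoric acid and methanol. Enzyme: N-GST recombinant human c-Kit aa 544-end carrying V654A.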

[2] = Determination of Efflux-Ratio (ER) in Caco-2 cells; settings: human, Caco-2, pH 7.4
[3] = biological target: T2, GIST430/654 cell line expressing mutated constitutively active cKIT receptor tyrosine kinase (Δ560-576 deletion and V654A point mutation) (Homo sapiens, UniProt P10721, DEL560-576/V654A); experiment: Cellular cKIT autophosphorylation (phospho-Y307-cKIT, Luminex bead assay) in GIST430/654 cells; assay type: cell-based; settings: compounds 45 min, read-out: GIST 430/654 IC50
T2 construct: endogenous in cells; host or cells: GIST430/654 cells
In short: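 GIST430 (Δ560-576) and imatinib-resistant GIST430/654 (plus V654A; grown with 100 nM imatinib) cells were plated in IMDM/15% FCS and treated next day with serially diluted compound for 45 min. Lysates were captured on anti-total-cKIT Luminex beads overnight at 4 °C and probed for phospho-Y307. IC50 was taken from percent of 0.3% DMSO control.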

T1 sequence (P10721 544-976 V654A): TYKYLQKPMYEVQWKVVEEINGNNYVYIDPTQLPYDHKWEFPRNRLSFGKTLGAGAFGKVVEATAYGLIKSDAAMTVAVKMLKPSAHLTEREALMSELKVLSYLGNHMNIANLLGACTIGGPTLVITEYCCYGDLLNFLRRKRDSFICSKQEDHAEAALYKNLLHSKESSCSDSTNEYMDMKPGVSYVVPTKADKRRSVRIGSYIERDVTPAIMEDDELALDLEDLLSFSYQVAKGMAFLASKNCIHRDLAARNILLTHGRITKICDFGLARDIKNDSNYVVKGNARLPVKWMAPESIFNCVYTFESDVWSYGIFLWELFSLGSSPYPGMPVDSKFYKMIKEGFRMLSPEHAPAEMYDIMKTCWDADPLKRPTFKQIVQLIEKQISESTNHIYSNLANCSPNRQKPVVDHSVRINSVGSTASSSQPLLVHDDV
T2 sequence (P10721 with tags, fused parts or gaps DEL560-576/V654A): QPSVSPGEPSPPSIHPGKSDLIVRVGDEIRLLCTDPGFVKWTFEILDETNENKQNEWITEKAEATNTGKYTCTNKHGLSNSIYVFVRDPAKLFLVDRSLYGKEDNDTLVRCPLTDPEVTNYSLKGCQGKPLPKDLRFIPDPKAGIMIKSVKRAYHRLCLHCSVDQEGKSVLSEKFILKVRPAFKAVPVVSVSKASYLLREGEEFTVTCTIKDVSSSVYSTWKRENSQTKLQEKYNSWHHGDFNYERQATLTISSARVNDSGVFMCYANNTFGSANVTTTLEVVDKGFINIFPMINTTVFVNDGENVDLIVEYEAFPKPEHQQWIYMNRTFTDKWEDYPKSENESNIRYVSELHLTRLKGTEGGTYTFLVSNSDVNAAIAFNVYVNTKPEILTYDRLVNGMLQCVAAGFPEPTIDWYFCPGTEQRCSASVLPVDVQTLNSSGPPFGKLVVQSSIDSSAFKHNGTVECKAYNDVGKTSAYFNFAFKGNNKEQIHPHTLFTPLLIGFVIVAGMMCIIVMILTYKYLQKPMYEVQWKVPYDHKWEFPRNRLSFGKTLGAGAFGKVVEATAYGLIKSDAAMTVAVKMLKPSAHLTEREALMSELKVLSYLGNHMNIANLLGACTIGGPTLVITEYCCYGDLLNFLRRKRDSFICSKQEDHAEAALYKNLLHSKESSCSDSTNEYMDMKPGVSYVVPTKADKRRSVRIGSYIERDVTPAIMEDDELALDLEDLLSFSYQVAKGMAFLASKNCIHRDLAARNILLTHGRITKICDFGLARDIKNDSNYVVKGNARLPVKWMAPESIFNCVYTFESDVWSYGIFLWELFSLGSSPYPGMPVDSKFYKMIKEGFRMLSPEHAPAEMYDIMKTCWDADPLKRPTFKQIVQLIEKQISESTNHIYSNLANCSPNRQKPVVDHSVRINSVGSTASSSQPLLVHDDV

Row | SMILES | IC50 [1] [nM] | efflux ratio at 2 h, 1 μM [2] | IC50 [3] [nM]
1 | CN1CCN(CCOc2ccn3c(-c4cc(NCc5ccc(-c6cnn(C)c6)cc5)ncn4)cnc3c2)CCC1=O [A219, 4-methyl-1-[2-(3-{6-[4-(1-methyl-1H-pyrazol-4-yl)-benzylamino]-pyrimidin-4-yl}-imidazo[1,2-a]pyridin-7-yloxy)-ethyl]-[1,4]diazepan-5-one] | 11 | 15 to 50 | 100
2 | COC1(C)CCN(CCOc2ccn3c(-c4cc(NCc5ccc(-c6cnn(C)c6)cc5)ncn4)cnc3c2)CC1 [A220, (6-{7-[2-(4-methoxy-4-methyl-piperidin-1-yl)-ethoxy]-imidazo[1,2-a]pyridin-3-yl}-pyrimidin-4-yl)-[4-(1-methyl-1H-pyrazol-4-yl)-benzyl]-amine] | 11 | < 15 | 140
3 | Cc1nnc2n1CCN(CCOc1ccn3c(-c4cc(NCc5ccc(-c6cnn(C)c6)cc5)ncn4)cnc3c1)C2 [A221, (6-{7-[2-(3-methyl-5,6-dihydro-8H-[1,2,4]triazolo[4,3-a]pyrazin-7-yl)-ethoxy]-imidazo[1,2-a]pyridin-3-yl}-pyrimidin-4-yl)-[4-(1-methyl-1H-pyrazol-4-yl)-benzyl]-amine] | 14 | > 50 | 400
4 | Cn1cc(-c2ccc(CNc3cc(-c4cnc5cc(OCCN6CCC(C)(C#N)CC6)ccn45)ncn3)cc2)cn1 [A222, 4-methyl-1-[2-(3-{6-[4-(1-methyl-1H-pyrazol-4-yl)-benzylamino]-pyrimidin-4-yl}-imidazo[1,2-a]pyridin-7-yloxy)-ethyl]-piperidine-4-carbonitrile] | 17 | < 15 | 93
5 | Cn1cc(-c2ccc(CNc3cc(-c4cnc5cc(OCCC(C)(C)N)ccn45)ncn3)cc2)cn1 [A223, {6-[7-(3-amino-3-methyl-butoxy)-imidazo[1,2-a]pyridin-3-yl]-pyrimidin-4-yl}-[4-(1-methyl-1H-pyrazol-4-yl)-benzyl]-amine] | 11 | > 50 | 190
6 | Cn1cc(-c2ccc(CNc3cc(-c4cnc5cc(OCCS(C)(=O)=O)ccn45)ncn3)cc2)cn1 [A224, {6-[7-(2-methanesulfonyl-ethoxy)-imidazo[1,2-a]pyridin-3-yl]-pyrimidin-4-yl}-[4-(1-methyl-1H-pyrazol-4-yl)-benzyl]-amine] | 6.5 | 15 to 50 | 99
7 | Cn1cc(-c2ccc(CNc3cc(-c4cnc5cc(-c6cnn(C)c6)ccn45)ncn3)cc2)cn1 [A226, 6-[7-(1-methyl-1H-pyrazol-4-yl)imidazo[1,2-a]pyridin-3-yl]-N-{[4-(1-methyl-1H-pyrazol-4-yl)phenyl]methyl}pyrimidin-4-amine] | 4.2 | < 15 | 51
8 | Cn1cc(-c2ccc(CNc3cc(-c4cnc5cc(N6CCN(C7COC7)CC6)ccn45)ncn3)cc2)cn1 [A230, [4-(1-methyl-1H-pyrazol-4-yl)-benzyl]-{6-[7-(4-oxetan-3-yl-piperazin-1-yl)-imidazo[1,2-a]pyridin-3-yl]-pyrimidin-4-yl}-amine] | 24 | < 15 | 63
9 | Cn1ncc(-c2ccc(CNc3cc(-c4cnc5cc(OCCCS(C)(=O)=O)ccn45)ncn3)cc2)n1 [A231, {6-[7-(3-methanesulfonyl-propoxy)-imidazo[1,2-a]pyridin-3-yl]-pyrimidin-4-yl}-[4-(2-methyl-2H-[1,2,3]triazol-4-yl)-benzyl]-amine] | 15 | 15 to 50 | 250
10 | Cn1cc(-c2ccc(CNc3cc(-c4cnc5cc(OCCC6(N)COC6)ccn45)ncn3)cc2)cn1 [A233] | 8.7 | > 50 | 130
11 | Cn1cc(-c2ccc(CNc3cc(-c4cnc5cc(OCCOCCO)ccn45)ncn3)cc2)cn1 [A234, 2-[2-(3-{6-[4-(1-methyl-1H-pyrazol-4-yl)-benzylamino]-pyrimidin-4-yl}-imidazo[1,2-a]pyridin-7-yloxy)-ethoxy]-ethanol] | 8.5 | < 15 | 70
12 | Cc1nc(-c2ccc(CNc3cc(-c4cnc5cc(OCCO)ccn45)ncn3)cc2)co1 [A236, 2-(3-{6-[4-(2-methyl-oxazol-4-yl)-benzylamino]-pyrimidin-4-yl}-imidazo[1,2-a]pyridin-7-yloxy)-ethanol] | 1.5 | < 15 | 74
13 | Cn1cc(-c2ccc(CNc3cc(-c4cnc5cc(OCCCN6CCN(C7CC7)CC6)ccn45)ncn3)cc2)cn1 [A243, (6-{7-[3-(4-cyclopropyl-piperazin-1-yl)-propoxy]-imidazo[1,2-a]pyridin-3-yl}-pyrimidin-4-yl)-[4-(1-methyl-1H-pyrazol-4-yl)-benzyl]-amine] | 6.7 | < 15 | 40
14 | Cn1cc(-c2ccc(CNc3cc(-c4cnc5cc(N6CCC(O)C6)ccn45)ncn3)cc2)cn1 (stereo not drawn) [A245, 1-(3-{6-[4-(1-methyl-1H-pyrazol-4-yl)-benzylamino]-pyrimidin-4-yl}-imidazo[1,2-a]pyridin-7-yl)-pyrrolidin-3-ol] | 13 | > 50 | 84
15 | Cn1cc(-c2ccc(CNc3cc(-c4cnc5cc(N6CC7(COC7)C6)ccn45)ncn3)cc2)cn1 [A246, [4-(1-methyl-1H-pyrazol-4-yl)-benzyl]-{6-[7-(2-oxa-6-aza-spiro[3.3]hept-6-yl)-imidazo[1,2-a]pyridin-3-yl]-pyrimidin-4-yl}-amine] | 8 | < 15 | 38
16 | Cn1cc(-c2ccc(CNc3cc(-c4cnc5cc(N6CCC7(COC7)C6)ccn45)ncn3)cc2)cn1 [A247, [4-(1-methyl-1H-pyrazol-4-yl)-benzyl]-{6-[7-(2-oxa-6-aza-spiro[3.4]oct-6-yl)-imidazo[1,2-a]pyridin-3-yl]-pyrimidin-4-yl}-amine] | 7.8 | < 15 | 62
17 | CN1CC2(CN(CCOc3ccn4c(-c5cc(NCc6ccc(-c7cnn(C)c7)cc6)ncn5)cnc4c3)C2)OC1=O [A248, 7-methyl-2-[2-(3-{6-[4-(1-methyl-1H-pyrazol-4-yl)-benzylamino]-pyrimidin-4-yl}-imidazo[1,2-a]pyridin-7-yloxy)-ethyl]-5-oxa-2,7-diaza-spiro[3.4]octan-6-one] | 21 | > 50 | 160
18 | CC(Nc1cc(-c2cnc3cc(OCCCN4CCC4)ccn23)ncn1)c1ccc(-c2cnn(C)c2)cc1 (stereo not drawn) [A249, {6-[7-(3-azetidin-1-yl-propoxy)-imidazo[1,2-a]pyridin-3-yl]-pyrimidin-4-yl}-{1-[4-(1-methyl-1H-pyrazol-4-yl)-phenyl]-ethyl}-amine] | 87 | > 50 | 440
19 | CC(Nc1cc(-c2cnc3cc(OCCCN4CCCC4)ccn23)ncn1)c1ccc(-c2cnn(C)c2)cc1 (stereo not drawn) [A250, {1-[4-(1-methyl-1H-pyrazol-4-yl)-phenyl]-ethyl}-{6-[7-(3-pyrrolidin-1-yl-propoxy)-imidazo[1,2-a]pyridin-3-yl]-pyrimidin-4-yl}-amine] | 110 | > 50 | 410
20 | OCCOc1ccn2c(-c3cc(NCc4ccc(-c5cocn5)cc4)ncn3)cnc2c1 [A251, 2-{3-[6-(4-oxazol-4-yl-benzylamino)-pyrimidin-4-yl]-imidazo[1,2-a]pyridin-7-yloxy}-ethanol] | 2 | < 15 | 44
21 | Cn1cc(-c2ccc(CNc3cc(-c4cnc5cc(OCCn6cccn6)ccn45)ncn3)cc2)cn1 [A255, N-{[4-(1-methyl-1H-pyrazol-4-yl)phenyl]methyl}-6-{7-[2-(1H-pyrazol-1-yl)ethoxy]imidazo[1,2-a]pyridin-3-yl}pyrimidin-4-amine] | 15 | < 15 | 100
22 | Cn1cc(-c2ccc(CNc3cc(-c4cnc5cc(OCCCn6cccn6)ccn45)ncn3)cc2)cn1 [A257, N-{[4-(1-methyl-1H-pyrazol-4-yl)phenyl]methyl}-6-{7-[3-(1H-pyrazol-1-yl)propoxy]imidazo[1,2-a]pyridin-3-yl}pyrimidin-4-amine] | 16 | < 15 | 130
